The text below walks through data of patent publication US12187728B2 (Raze Therapeutics, Inc., priority 2015, dated 2025).

The target of the test is T1, Human MTHFD2 (Homo sapiens, UniProt P13995).
T1 construct: residues 36-350 in Uniport ID P13995; His6 (N); made in house; host or cells: E. coli
T1 sequence (P13995 36-350): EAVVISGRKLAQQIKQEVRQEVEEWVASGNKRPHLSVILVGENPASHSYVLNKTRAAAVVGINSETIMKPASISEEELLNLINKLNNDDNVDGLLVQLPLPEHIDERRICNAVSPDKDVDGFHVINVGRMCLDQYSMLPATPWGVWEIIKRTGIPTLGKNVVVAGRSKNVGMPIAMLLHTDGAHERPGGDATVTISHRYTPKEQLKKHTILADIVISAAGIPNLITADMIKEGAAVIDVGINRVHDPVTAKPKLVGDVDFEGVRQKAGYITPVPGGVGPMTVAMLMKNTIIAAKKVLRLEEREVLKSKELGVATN
Briefly: MTHFD2 Activity Assay (dehydrogenase activity, diaphorase/resazurin coupled fluorescence). It counts as biochemical. As to conditions: inhibitory activity (IC50 and/or binding constant); 0.2 nM MTHFD2, 11 concentrations. In a few lines:
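Steps: compound + 0.2 nM enzyme, 15 min, pH 8.0 Hepes buffer; add 70 μM CH2-THF, 1 mM NAD+, 100 μM resazurin, diaphorase; 30 min; quench with EDTA; read fluorescence. Data normalized to DMSO (100%) and no-enzyme (0%) wells.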
Consider `Cn1c(Nc2cccnn2)nc2c1c(=O)n(Cc1cc3ccccc3[nH]1)c(=O)n2C` [Example 201, 1-((1H-indol-2-yl)methyl)-3,7-dimethyl-8-(pyridazin-3-ylamino)-1H-purine-2,6(3H,7H)-dione], for which the half-maximal inhibitory concentration (IC50) is 10 to 1000 nM. In the case of `Cc1ccc2cc(Cn3c(=O)c4c(nc(Nc5ccncc5)n4C)n(C)c3=O)[nH]c2c1` [Example 326, 3,7-dimethyl-1-((6-methyl-1H-indol-2-yl)methyl)-8-(pyridin-4-ylamino)-1H-purine-2,6(3H,7H)-dione], the half-inhibitory concentration (IC50) was in the range of 10 to 1000 nM. `Cn1c(C(N)C(CO)CO)nc2c1c(=O)n(Cc1cc3c(Cl)cccc3[nH]1)c(=O)n2C` (centres unmarked) [Example 465, 8-[1-amino-3-hydroxy-2-(hydroxymethyl)propyl]-1-[(4-chloro-1H-indol-2-yl)methyl]-3,7-dimethyl-purine-2,6-dione] came in with an IC50 of 10 to 1000 nM. Turning to `Cn1cnc2c1c(=O)n(Cc1cc3cccnc3[nH]1)c(=O)n2C` [Example 290, 1-((1H-pyrrolo[2,3-b]pyridin-2-yl)methyl)-3,7-dimethyl-1H-purine-2,6(3H,7H)-dione], the concentration for half-maximal inhibition (IC50) lay in the range of 5000 to 10000 nM. As to `CN(C)CCc1nc2c(c(=O)n(Cc3ccc(Cl)c(Cl)c3)c(=O)n2C)n1C` [Example 157, 1-(3,4-dichlorobenzyl)-8-(2-(dimethylamino)ethyl)-3,7-dimethyl-1H-purine-2,6(3H,7H)-dione], the IC50 was 1000 to 5000 nM. With `Cn1c(Nc2ccc(C(=O)O)cc2)nc2c1c(=O)n(Cc1cc3ccccc3[nH]1)c(=O)n2C` [Example 297, 4-[[1-(1H-indol-2-ylmethyl)-3,7-dimethyl-2,6-dioxo-purin-8-yl]amino]benzoic acid] the figure was 10 to 1000 nM; with `Cn1c(-n2nccc2N)nc2c1c(=O)n(Cc1cc3cc(Cl)ccc3[nH]1)c(=O)n2C` [Example 219, 8-(5-amino-1H-pyrazol-1-yl)-1-((5-chloro-1H-indol-2-yl)methyl)-3,7-dimethyl-1H-purine-2,6(3H,7H)-dione], 10 to 1000 nM; with `Cn1c(Nc2cnccn2)nc2c1c(=O)n(Cc1cc3c(Cl)cccc3[nH]1)c(=O)n2C` [Example 354, 1-((4-chloro-1H-indol-2-yl)methyl)-3,7-dimethyl-8-(pyrazin-2-ylamino)-1H-purine-2,6(3H,7H)-dione], 10 to 1000 nM. Consider `Cn1c(Nc2ncn[nH]2)nc2c1c(=O)n(Cc1cc3ccccc3[nH]1)c(=O)n2C` [Example 195, 1-((1H-indol-2-yl)methyl)-8-(2H-1,2,4-triazol-3-ylamino)-3,7-dimethyl-1H-purine-2,6(3H,7H)-dione], for which the concentration for half-maximal inhibition (IC50) fell in the range of 1000 to 5000 nM. With `Cn1c(N2CC(O)C2)nc2c1c(=O)n(Cc1cc3ccccc3[nH]1)c(=O)n2C` [Example 192, 1-((1H-indol-2-yl)methyl)-8-(3-hydroxyazetidin-1-yl)-3,7-dimethyl-1H-purine-2,6(3H,7H)-dione] the figure was 1000 to 5000 nM.

With `Cn1c(Cn2c(=O)c3c(nc(Nc4cc[nH]c(=O)n4)n3C)n(C)c2=O)cc2cc(Cl)ccc21` [Example 224, 1-((5-chloro-1-methyl-1H-indol-2-yl)methyl)-3,7-dimethyl-8-(2-oxo-1,2-dihydropyrimidin-4-ylamino)-1H-purine-2,6(3H,7H)-dione], the IC50 lay in the range of 10 to 1000 nM. With `Cn1c(NC2(C(=O)O)CCCC2)nc2c1c(=O)n(Cc1ccc(Cl)c(Cl)c1)c(=O)n2C` [Example 148, 1-(1-(3,4-dichlorobenzyl)-3,7-dimethyl-2,6-dioxo-2,3,6,7-tetrahydro-1H-purin-8-ylamino)cyclopentanecarboxylic acid] the figure was 10 to 1000 nM; with `Cn1c(-n2ncnc2N)nc2c1c(=O)n(Cc1ccc(Cl)c(Cl)c1)c(=O)n2C` [Example 143, 8-(5-amino-1H-1,2,4-triazol-1-yl)-1-(3,4-dichlorobenzyl)-3,7-dimethyl-1H-purine-2,6(3H,7H)-dione], 1000 to 5000 nM. With `Cn1c(Nc2ccc3c(c2)NC(=O)CCC3)nc2c1c(=O)n(Cc1ccc(Cl)c(Cl)c1)c(=O)n2C` [Example 109, 1-(3,4-dichlorobenzyl)-3,7-dimethyl-8-(2-oxo-2,3,4,5-tetrahydro-1H-benzo[b]azepin-8-ylamino)-1H-purine-2,6(3H,7H)-dione], the half-maximal inhibitory concentration (IC50) was 10 to 1000 nM. Molecule `Cn1c(Nc2ccnc(CCC(=O)N3CCCC3)n2)nc2c1c(=O)n(Cc1cc3c(Cl)cccc3[nH]1)c(=O)n2C` [Example 417, 1-((4-chloro-1H-indol-2-yl)methyl)-3,7-dimethyl-8-(2-(3-oxo-3-(pyrrolidin-1-yl)propyl)pyrimidin-4-ylamino)-1H-purine-2,6(3H,7H)-dione] returned an IC50 of 10 to 1000 nM. As to `Cn1c(N[C@H]2C[C@H](C(=O)O)C2)nc2c1c(=O)n(Cc1ccc(Cl)c(Cl)c1)c(=O)n2C` [Example 266], the IC50 was 10 to 1000 nM. Under `Cn1c(NC2CCNC2=O)nc2c1c(=O)n(Cc1cc3ccccc3[nH]1)c(=O)n2C` (racemic) [Example 222, (±)-1-((1H-indol-2-yl)methyl)-3,7-dimethyl-8-(2-oxopyrrolidin-3-ylamino)-1H-purine-2,6(3H,7H)-dione] stands 10 to 1000 nM; under `Cn1c(N[C@H]2CCC[C@H](O)C2)nc2c1c(=O)n(Cc1ccc(Cl)c(Cl)c1)c(=O)n2C` (single isomer, unassigned) [Example 80, 1-(3,4-dichlorobenzyl)-8-((1S,3S)-3-hydroxycyclohexylamino)-3,7-dimethyl-1H-purine-2,6(3H,7H)-dione or 1-(3,4-dichlorobenzyl)-8-((1R,3R)-3-hydroxycyclohexylamino)-3,7-dimethyl-1H-purine-2,6(3H,7H)-dione], 10 to 1000 nM. `Cn1c(N[C@@H]2CCCC[C@H]2O)nc2c1c(=O)n(Cc1ccc(Cl)c(Cl)c1)c(=O)n2C` [Example 108, 1-(3,4-dichlorobenzyl)-8-((1R,2R)-2-hydroxycyclohexylamino)-3,7-dimethyl-1H-purine-2,6(3H,7H)-dione] showed an IC50 of 1000 to 5000 nM. The molecule `CCOC(=O)Cc1nc2c(c(=O)n(Cc3ccc(Cl)c(Cl)c3)c(=O)n2C)n1C` [Example 162, ethyl 2-(1-(3,4-dichlorobenzyl)-3,7-dimethyl-2,6-dioxo-2,3,6,7-tetrahydro-1H-purin-8-yl)acetate] registered a 50% inhibitory concentration (IC50) of 5000 to 10000 nM.

The molecule `Cn1c(N[C@H]2CC[C@H](CO)C2)nc2c1c(=O)n(Cc1ccc(Cl)c(Cl)c1)c(=O)n2C` (racemic) [Example 325, (±)-1-(3,4-dichlorobenzyl)-8-((trans)-3-(hydroxymethyl)cyclopentylamino)-3,7-dimethyl-1H-purine-2,6(3H,7H)-dione] registered a concentration for half-maximal inhibition (IC50) of 10 to 1000 nM.

`Cn1c(=O)n(Cc2ccc(Cl)c(Cl)c2)c(=O)c2[nH]c(NCCCO)nc21` [Example 90, 1-[(3,4-dichlorophenyl)methyl]-8-[(3-hydroxypropyl)amino]-3-methyl-2,3,6,7-tetrahydro-1H-purine-2,6-dione] yielded an IC50 of 1000 to 5000 nM. For the molecule `Cn1c(NCCC#N)nc2c1c(=O)n(Cc1ccc(Cl)c(Cl)c1)c(=O)n2C` [Example 131, 3-(1-(3,4-dichlorobenzyl)-3,7-dimethyl-2,6-dioxo-2,3,6,7-tetrahydro-1H-purin-8-ylamino)propanenitrile], the IC50 is 1000 to 5000 nM. `Cn1c(CCN2CCOCC2)nc2c1c(=O)n(Cc1cc3ccccc3[nH]1)c(=O)n2C` [Example 226, 1-((1H-indol-2-yl)methyl)-3,7-dimethyl-8-(2-morpholinoethyl)-1H-purine-2,6(3H,7H)-dione] returned a half-inhibitory concentration (IC50) of 10 to 1000 nM. Molecule `Cn1c(N[C@H]2CCC(=O)NC2)nc2c1c(=O)n(Cc1ccc(Cl)c(Cl)c1)c(=O)n2C` (single isomer, unassigned) [Example 82, (S)-1-(3,4-dichlorobenzyl)-3,7-dimethyl-8-(6-oxopiperidin-3-ylamino)-1H-purine-2,6(3H,7H)-dione or (R)-1-(3,4-dichlorobenzyl)-3,7-dimethyl-8-(6-oxopiperidin-3-ylamino)-1H-purine-2,6(3H,7H)-dione] showed a concentration for half-maximal inhibition (IC50) of 10 to 1000 nM. Molecule `Cn1c(N[C@H]2CCC[C@H](C(=O)O)C2)nc2c1c(=O)n(Cc1ccc(Cl)c(Cl)c1)c(=O)n2C` (single isomer, unassigned) [Example 186, (1S,3S)-3-(1-(3,4-dichlorobenzyl)-3,7-dimethyl-2,6-dioxo-2,3,6,7-tetrahydro-1H-purin-8-ylamino)cyclohexanecarboxylic or (1R,3R)-3-(1-(3,4-dichlorobenzyl)-3,7-dimethyl-2,6-dioxo-2,3,6,7-tetrahydro-1H-purin-8-ylamino)cyclohexanecarboxylic acid] gave a half-inhibitory concentration (IC50) of 10 to 1000 nM. `Cn1c(Nc2ccccn2)nc2c1c(=O)n(Cc1ccc(Cl)c(Cl)c1)c(=O)n2C` [Example 146, 1-(3,4-dichlorobenzyl)-3,7-dimethyl-8-(pyridin-2-ylamino)-1H-purine-2,6(3H,7H)-dione] displayed an IC50 of 10 to 1000 nM.

Turning to `Cn1cnc2c1c(=O)n(Cc1ccc(Cl)c(C#N)c1)c(=O)n2C` [Example 256, 2-chloro-5-((3,7-dimethyl-2,6-dioxo-2,3,6,7-tetrahydro-1H-purin-1-yl)methyl)benzonitrile], the IC50 lay within 1000 to 5000 nM. As to `CCOC(=O)Cn1c(=O)n(Cc2ccc(Cl)c(Cl)c2)c(=O)c2c1nc(NCCCO)n2C` [Example 98, Ethyl 2-(1-(3,4-dichlorobenzyl)-8-((3-hydroxypropyl)amino)-7-methyl-2,6-dioxo-1,2,6,7-tetrahydro-3H-purin-3-yl)acetate], the IC50 lay in the range of 5000 to 10000 nM.
